The results in this text go back to patent US12324794B2, “Method to alleviate the symptoms of PMS” (priority 2016, dated 2025).

SMILES strings stand for the structures.

The subject of one series is women with PMS / PMDD. The experiment in a line: Case studies of women with PMS or PMDD symptoms (Examples 2-6). The class given is in vivo, human. The text has this:
Below are some case studies and a human trial, both of which show significant improvement in symptoms. While acne can be measured by inspection, the other symptoms rely upon the internal feelings of the patient. To measure symptoms that deal with tender breasts, fatigue, difficulty concentrating, diminished impulse control, irritability, anxiety, tension, anger, depression, suicidal thoughts, feeling “out of control”, insomnia, cramping and rapid fluctuations in mood, one skilled in the art must rely on the interpretation of patient. This can be done through an interview with an expert, such as a medical doctor, or through validated survey forms that specifically address these symptoms. Examples of these forms that have been validated by independent clinical trial include: • Buss Perry Aggression Questionnaire (Anger) • Clinical Anger Scale (Anger) • Cohen-Perceived-Stress Scale (Anxiety) • Generalized-Anxiety-Scale (Anxiety) • Generalized Anxiety Disorder 7-item (GAD-7) scale (Anxiety) • Beck's Depression Inventory (Depression) • Center for Epidemiologic Studies Depression Scale (Depression) • Hospital Anxiety and Depression Scale (Anxiety and Depression) • Premenstrual Assessment Form (anger, depression, fatigue and anxiety) • Mood Calendar Tracking (anger, depression, fatigue and anxiety) A person experienced severe anger and depression one day a month, right before their period, every month. […] The cramping was not relieved by Midol or Aspirin. The person was despondent even after their symptoms of PMDD left because of guilt over their behavior during this time period. […] They reported that it was like a 1,000 pound weight being taken off their shoulders. The person in Example 3 continued to take oxaloacetate each month for the next three months and monitored their progress. They took one pill starting about 10 days before their period, and continued taking 1 pill daily until the first sign of PMS, when they increased the dosage to 2 capsules per day until the 2nd day of their period. […] They reported that “I am no longer a suicidal, psychotic crazy person every month. And I know it is the supplements because this will be the 3rd month with no PMDD and that is NOT a coincidence.” A person presented with severe PMDD ever since they were […]. They are now 26. Typically, the patient had to take-off from work 3 days out of each month, and self-seclude, because they could not be with people. […] The improvements with anhydrous enol-oxaloacetate have continued for over 2 years with this patient. A person presented with severe anxiety attacks and fatigue during the week before menstruation.

Series [1] can be described thus: Stability / decarboxylation. The class given is physicochemical. The text has this: The enol and keto form of oxaloacetic acid are tautomers, and in water form a chemical equilibrium. […] The keto-oxaloacetate decarboxylates quickly to pyruvate. As the keto-oxaloacetate form disappears due to decarboxylation, the enol and hydrated form convert to keto-oxaloacetate, and then also decarboxylate into carbon dioxide and pyruvate, until all the oxaloacetate is consumed. Note that neither of the byproducts of oxaloacetate decarboxylation, carbon dioxide and pyruvate, are effective in treating the symptoms of PMS and PMDD. If there are divalent cations in the fluid, which is very common, the decarboxylation of oxaloacetic acid can happen within a day. […] (See Cash, U.S. Pat. No. 9,050,306). […] Water catalyzes the equilibrium reaction between enol- and keto oxaloacetic acid. Note that only the keto form of oxaloacetic acid decarboxylates into pyruvate and carbon dioxide spontaneously, not the enol-form. There is an energy gap between the enol and keto form which is bridged when the compounds are exposed to water, however, this same energy gap prevents the conversion of the enol to keto form when the product is kept dry. Once there is a conversion to the keto form, decarboxylation can spontaneously occur at temperatures above the freezing point of water. […] Drying effectiveness can be increased by increasing the drying time, drying under vacuum, by using anhydrous washes of isopropyl alcohol or ethyl alcohol to absorb the remaining water (and then evaporating the alcohol), or by performing multiple washes with hexane or non-water soluble solvent to physically remove the water, typically after an alcohol wash. The non-water soluble solvent would then be evaporated off. […] Hexane is a residual solvent in many commercial food preparations including decaffeinated coffee, and is not toxic in small quantities. Alternatively, the final wash can be performed with liquefied propane, liquefied butane, ethyl acetate, ethane, carbon dioxide, or nitrous oxide to reduce the water content.

A short description of series [2]: Forms of oxaloacetic acid in water. The series is classed as physicochemical. The following applies: pH 6.9. The protocol: In some embodiments, the present invention provides methods for treating symptoms of PMS and methods for treating symptoms of PMS and PMDD comprising administration of compositions comprising oxaloacetate. Oxaloacetic acid, when dissolved in water, ionizes to oxaloacetate. The oxaloacetate can be in three forms depending on the pH of the solution. At low pH (<1.5) and low temperature (<4° C.) oxaloacetate hydrates. […] Outside of water solutions, the solid form of oxaloacetic acid is primarily in the enol form. All forms of oxaloacetic acid and the ion oxaloacetate are absorbed by the body. The hydrated form is mostly converted once it enters the higher pH of the body outside of the intestinal tract to the keto and enol form. […] Enol-oxaloacetate is converted to keto-oxaloacetate with the enzyme enol-keto tautomerase, a ubiquitous enzyme throughout the human body. The enol and keto form of oxaloacetic acid are tautomers, and in water form a chemical equilibrium. […] The keto-oxaloacetate decarboxylates quickly to pyruvate. As the keto-oxaloacetate form disappears due to decarboxylation, the enol and hydrated form convert to keto-oxaloacetate, and then also decarboxylate into carbon dioxide and pyruvate, until all the oxaloacetate is consumed. Note that neither of the byproducts of oxaloacetate decarboxylation, carbon dioxide and pyruvate, are effective in treating the symptoms of PMS and PMDD. If there are divalent cations in the fluid, which is very common, the decarboxylation of oxaloacetic acid can happen within a day.

For series [3], the system named is women with PMS. The experiment in a line: Single-blinded, placebo controlled cross-over trial for PMS emotional symptoms (Example 8). The series is classed as in vivo, human. Further details: concentration or dose not given beside the values. The following applies: placebo first, oxaloacetate second, 19 women. An excerpt:
The clinical trial of Example 7 was repeated with 19 women, except that the trial was single blinded. The placebo was sent to all women first, and the oxaloacetate active second. […] This should not have come as a complete surprise to us, as oxaloacetate exerts a beneficial effect on gene expression (movement towards the calorie restriction metabolic state) that can have positive effects for several weeks after discontinuation of the product. To better measure the oxaloacetate effect, therefore, oxaloacetate was given second in this trial. P values were calculated using a student's T test, using a two-tailed distribution with paring of the data to the individual.

Series [4] deals with women with PMS. The experiment in a line: Randomized, double-blinded, placebo controlled cross-over trial for PMS emotional symptoms (Example 7). The following applies: 200 mg oxaloacetate per day, approx. 28 days, 26 women. The series is classed as in vivo, human. The protocol: A randomized, double blinded placebo-controlled crossover trial was conducted using 200 mg oxaloacetate per day as the active ingredient, and rice flour as the placebo ingredient. An Institutional Review Board (IRB) has approved the clinical plan, and patients have signed the human consent forms. Patients were located from across the United States. Consent forms and survey questionnaires were filled out on-line. The patients and the lead investigator were unaware of which product, Active or Placebo, the patients were receiving. Inclusion Criteria for the trial: • Able to give informed consent and follow instructions per the protocol • Female with history of mood swings, anxiety or depressed mood associated with PMS • Ages 21 to 50 at the start of the study • Not pregnant Exclusion Criteria for the trial: • A formal diagnosis of Major Depression • Previously taken Oxaloacetate as a supplement • Participation in other drug studies or use of other investigational products within 30 days prior to baseline • If unwilling to discontinue use of other nutritional supplements taken for the purpose of PMS modulation during the study • Any unstable or clinically significant condition that would impair the subject's ability to comply with study follow up. • […] of Premenstrual Dysphoric Disorder (PMDD) (a severe form of PMS). After signing the human consent forms, the patient took four different surveys to assess their current emotional state during PMS. • The Beck Depression Inventory modified to examine the week prior to the person's period (21 questions) • The Cohen Perceived Stress form, modified to examine the week prior to the person's period (10 questions). • The Generalized Anxiety Disorder 7-Item Scale modified to examine the week prior to the person's period (7 questions). • The Buss Perry Aggression questionnaire modified to examine the week prior to the person's period (29 questions). The time to fill out the composite 4-survey questionnaire is less than 30 minutes. The questionnaires are filled out on-line and made available to investigator team. […] After a “baseline” 4-survey questionnaire was completed by the women, they would be randomly sent either the Active oxaloacetate compound (200 mg oxaloacetate) or the Placebo (200 mg rice flour). The women would take a daily dose of the compound received, starting with their menstrual period, and continuing daily until the following menstrual period. At that following menstrual period, the women would again complete the 4-survey questionnaire. […] This is a “cross-over” type design. The women take the new product staring on a menstrual period, and continue taking it daily until a following menstrual period. The then again complete the 4-survey questionnaire. In this trial, each woman completed a baseline survey, and a survey after approximately 28 days for oxaloacetate, and a survey after approximately 28 days for rice flour. 26 women completed the study. Half of the women took oxaloacetate first, and the other half took a placebo first. […] P values were calculated using a student's T test, using a two-tailed distribution with paring of the data to the individual.

The subject of series [5] is women with PMS. The experiment in a line: Suicidal Ideation item of Beck's Depression Inventory, Clinical Trials 1 and 2 compiled (Example 9). The series is classed as in vivo, human. The following applies: 31 women with baseline score above 0, both trials compiled. An excerpt:
In the clinical trials within Examples 7 and 8, the Beck's Depression Inventory was used. One portion of the Beck's Depression Inventory specifically deals with “Suicidal Ideation” (thoughts about committing suicide). The survey scores the relative severity of suicidal ideation via numerical scoring as follows: • Score Value • 0 I don't have any thoughts of killing myself. • 1 I have thoughts of killing myself, but I would not carry them out. • 2 I would like to kill myself. • 3 I would kill myself if I had the chance. The results of Clinical Trial 1 and 2 were compiled to examine the Suicidal Ideation of the women who participated in this clinical trial. Out of the 45 women in both trials, 31 women experienced a score above 0 in the baseline survey. No women in the completed study who scored 0 in the baseline study increased their suicidal ideation score. In order to examine suicidal ideation statistically, women with a 0 score on their baseline survey were removed from the analysis. P values were calculated using a student's T test, using a two-tailed distribution with paring of the data to the individual.

For series [6] the following is noted: in vivo. An excerpt:
The dose ratio between toxic and therapeutic effects is the therapeutic index and it can be expressed as the ratio LD50/ED50.

On to `O=C(O)CC(=O)C(=O)O` [anhydrous enol-oxaloacetate, anhydrous enol-oxaloacetic acid], for which the “fatigue during the week before menstruation” value with women with PMS / PMDD (person, two 100 mg lozenges under the tongue (Example 6)) is given as “greatly reduced”. Also, the “time until panic attack subsided” value with women with PMS / PMDD (person, two 100 mg lozenges under the tongue for 5 minutes (Example 6)) is given as “less than 5 minutes”. Besides, the “severe premenstrual anger and depression” value in the series on women with PMS / PMDD (person, two capsules of 100 mg on that day (Example 2)) is recorded as “reduced in intensity to the point where they could manage the symptoms easily”. The “stability at room temperature” value in series [1] (room temperature, kept dry) is listed as “exceeding one year”.

As for `O=C(O)CC(=O)C(=O)O` [oxaloacetic acid], in series [2], the “share in the enol form” value was determined as 11%, the “share in the hydrated form” value is on record as 5% and the “share in the keto form” value is listed as 84%. Besides, the “time to decarboxylation in fluid” value in series [1] (divalent cations in the fluid) was “within a day”. In series [1] (very low pH, temperatures not exceeding 8° C.), the “stability of the hydrated form” value is “less than one week”.

In the case of `O=C(O)CC(=O)C(=O)O` [Oxaloacetate], in the series with women with PMS [3], the “Beck's Depression Inventory, reduction from Placebo” value was found to be 37.12%; the “Beck's Depression Inventory, reduction from baseline” value stood at 54.42%; the “Buss-Perry Aggression Scale, reduction from Placebo” value is given as 14.06%; the “Buss-Perry Aggression Scale, reduction from baseline” value came out at 17.81%. For the same molecule, in the series with women with PMS [3], the “Cohen Perceived Stress, reduction from Placebo” value worked out at 24.40%; the “Cohen Perceived Stress, reduction from baseline” value is recorded as 36.67%; the “Generalized Anxiety Disorder, reduction from Placebo” value was found to be 38.02%; the “Generalized Anxiety Disorder, reduction from baseline” value is 54.23%. Also, in the series on women with PMS [4], the “Beck's Depression Inventory, reduction from Placebo” value turned out to be 25.57%; the “Beck's Depression Inventory, reduction from baseline” value turned out to be 50.88%; the “Buss-Perry Aggression Scale, reduction from Placebo” value was found to be 9.22%; the “Buss-Perry Aggression Scale, reduction from baseline” value stood at 15.10%. In the series on women with PMS [4], the “Cohen Perceived Stress, reduction from Placebo” value was 16.51%; the “Cohen Perceived Stress, reduction from baseline” value amounted to 34.35%; the “Generalized Anxiety Disorder, reduction from Placebo” value is given as 28.08%; the “Generalized Anxiety Disorder, reduction from baseline” value stood at 49.73%. In addition, in the series with women with PMS [5], the “Suicidal Ideation, reduction from Baseline” value is recorded as 47.90%. Further, in series [6], the LD50 entry is on record as “above 5 g/kg of body weight”.

Turning to `CC(=O)Oc1ccccc1C(=O)O` [Aspirin, reference compound], in the series on women with PMS / PMDD (person with PMDD, history (Example 3)), the “relief of extreme cramping (pain level 10)” value is “not relieved”.
